Data from the NIST ThermoML archive (doi:10.1021/acs.jced.5b00251).
Numbers after ± are expanded uncertainties.

Experiment: refractive index (other wavelength) (dimensionless)
Conditions: 101 kPa, Liquid, Standard Abbe refractometry

Compound	refractive index (293.15 K, Wavelength=436.1 nm)	refractive index (293.15 K, Wavelength=513.9 nm)	refractive index (293.15 K, Wavelength=589.3 nm)	refractive index (293.15 K, Wavelength=633.2 nm)	refractive index (293.15 K, Wavelength=657.2 nm)	refractive index (298.15 K, Wavelength=436.1 nm)	refractive index (298.15 K, Wavelength=513.9 nm)	refractive index (298.15 K, Wavelength=589.3 nm)	refractive index (298.15 K, Wavelength=633.2 nm)	refractive index (298.15 K, Wavelength=657.2 nm)	refractive index (303.15 K, Wavelength=436.1 nm)	refractive index (303.15 K, Wavelength=513.9 nm)	refractive index (303.15 K, Wavelength=589.3 nm)	refractive index (303.15 K, Wavelength=633.2 nm)	refractive index (303.15 K, Wavelength=657.2 nm)	refractive index (308.15 K, Wavelength=436.1 nm)	refractive index (308.15 K, Wavelength=513.9 nm)	refractive index (308.15 K, Wavelength=589.3 nm)	refractive index (308.15 K, Wavelength=633.2 nm)	refractive index (308.15 K, Wavelength=657.2 nm)	further results
c1ccc2c(c1)CCCC2 [1,2,3,4-tetrahydronaphthalene]	1.56232 ± 0.00078	1.54872 ± 0.001	1.5412 ± 0.00082	1.53808 ± 0.00078	1.53694 ± 0.00075	1.5598 ± 0.00078	1.54625 ± 0.00077	1.53875 ± 0.00076	1.53565 ± 0.00075	1.53452 ± 0.00075	1.55719 ± 0.00078	1.54373 ± 0.00076	1.53628 ± 0.00075	1.53321 ± 0.00075	1.53208 ± 0.00074	1.55471 ± 0.00077	1.5413 ± 0.00076	1.53389 ± 0.00075	1.53083 ± 0.00074	1.52971 ± 0.00074	refractive index (313.15 K, Wavelength=436.1 nm): 1.55219 ± 0.00077; refractive index (313.15 K, Wavelength=513.9 nm): 1.53886 ± 0.00076; refractive index (313.15 K, Wavelength=589.3 nm): 1.53148 ± 0.00075; refractive index (313.15 K, Wavelength=633.2 nm): 1.52844 ± 0.00073; refractive index (313.15 K, Wavelength=657.2 nm): 1.52732 ± 0.00074; refractive index (318.15 K, Wavelength=436.1 nm): 1.54974 ± 0.00077; refractive index (318.15 K, Wavelength=513.9 nm): 1.53647 ± 0.00059; refractive index (318.15 K, Wavelength=589.3 nm): 1.52912 ± 0.00067; refractive index (318.15 K, Wavelength=633.2 nm): 1.52629 ± 0.0007; refractive index (318.15 K, Wavelength=657.2 nm): 1.52495 ± 0.00074
CCCCCCCCCCCC [dodecane]	1.43105 ± 0.00072	1.42506 ± 0.00082	1.42171 ± 0.00074	1.42031 ± 0.00073	1.41993 ± 0.00071	1.42886 ± 0.00072	1.42291 ± 0.00071	1.41957 ± 0.00071	1.41815 ± 0.00071	1.41777 ± 0.00071	1.42666 ± 0.00072	1.42074 ± 0.00072	1.41742 ± 0.00071	1.41601 ± 0.00071	1.41564 ± 0.00071	1.42445 ± 0.00072	1.41857 ± 0.00072	1.41527 ± 0.00071	1.41385 ± 0.00071	1.4135 ± 0.00071	refractive index (313.15 K, Wavelength=436.1 nm): 1.42223 ± 0.00072; refractive index (313.15 K, Wavelength=513.9 nm): 1.41638 ± 0.00072; refractive index (313.15 K, Wavelength=589.3 nm): 1.41309 ± 0.00071; refractive index (313.15 K, Wavelength=633.2 nm): 1.41171 ± 0.00072; refractive index (313.15 K, Wavelength=657.2 nm): 1.41134 ± 0.00071; refractive index (318.15 K, Wavelength=436.1 nm): 1.42001 ± 0.00072; refractive index (318.15 K, Wavelength=513.9 nm): 1.41418 ± 0.00063; refractive index (318.15 K, Wavelength=589.3 nm): 1.41093 ± 0.00069; refractive index (318.15 K, Wavelength=633.2 nm): 1.40943 ± 0.0007; refractive index (318.15 K, Wavelength=657.2 nm): 1.4092 ± 0.00071
CC(C)Cc1ccccc1 [(2-methylpropyl)benzene]	1.50429 ± 0.00078	1.4927 ± 0.001	1.48654 ± 0.0008	1.48377 ± 0.00078	1.48286 ± 0.00076	1.50172 ± 0.00078	1.49023 ± 0.00076	1.48406 ± 0.00076	1.48132 ± 0.00075	1.48035 ± 0.00075	1.49916 ± 0.00078	1.48772 ± 0.00077	1.4815 ± 0.00076	1.47888 ± 0.00075	1.47798 ± 0.00074	1.49659 ± 0.00078	1.48521 ± 0.00077	1.47904 ± 0.00075	1.47643 ± 0.00075	1.47555 ± 0.00075	refractive index (313.15 K, Wavelength=436.1 nm): 1.494 ± 0.00078; refractive index (313.15 K, Wavelength=513.9 nm): 1.48268 ± 0.00076; refractive index (313.15 K, Wavelength=589.3 nm): 1.47657 ± 0.00076; refractive index (313.15 K, Wavelength=633.2 nm): 1.47397 ± 0.00075; refractive index (313.15 K, Wavelength=657.2 nm): 1.47309 ± 0.00075; refractive index (318.15 K, Wavelength=436.1 nm): 1.49143 ± 0.00078; refractive index (318.15 K, Wavelength=513.9 nm): 1.48023 ± 0.0006; refractive index (318.15 K, Wavelength=589.3 nm): 1.47409 ± 0.0007; refractive index (318.15 K, Wavelength=633.2 nm): 1.47151 ± 0.00072; refractive index (318.15 K, Wavelength=657.2 nm): 1.47063 ± 0.00075
